Measurements published in patent US8835426B2, “Cyclic urea and carbamate inhibitors of 11β-hydroxysteroid dehydrogenase 1” (Vitae Pharmaceuticals, Inc., priority 2007, dated 2014).
pIC50: −log10 of the molar value.

Biological target: T1, purified 11β-HSD1 (recombinant, expressed in E. coli) (Homo sapiens, UniProt P28845)
T1 construct: made in house; host or cells: E. coli
Experiment: Inhibition of purified 11β-HSD1, Scintillation Proximity Assay
Format: biochemical
Settings: recombinant enzyme, 3H cortisone, NADPH, room temperature
Description: (§1) The inhibition of purified 11β-HSD1 by compounds of Formula I was measured as follows using a Scintillation Proximity Assay. All reactions were carried out at room temperature in 96 well flexible Microbeta reaction plates. The assay begins by adding 1 microliter of a 0.1 mM solution of a compound of Formula I in DMSO previously diluted in half-log increments (8 points) starting at 1 micromolar final concentration. To this dot was added 50 microliters of substrate solution (50 mM HEPES, pH 7.4, 100 mM KCl, 5 mM NaCl, 2 mM MgCl2 containing […] of ^3H cortisone, 1 mM NADPH). After a 10 minute incubation, 50 microliters of enzyme solution containing 20 nM recombinant 11β-HSD1 (expressed in E. coli, and affinity purified) was added, The reaction was incubated for 90 minutes, and stopped by adding 50 microliters of SPA bead mix (18-β-glycyrrhetinic acid, 10 micromolar final, 5 mg/ml protein A coated YSi SPA beads, and 1-microgram/ml alpha-cortisol antibody (East Coast Biologics). The plate shaken for 120 minutes, and the radioactivity corresponding to ^3H cortisol was measured on a Wallac Microbeta.

T1 sequence (P28845 whole entry): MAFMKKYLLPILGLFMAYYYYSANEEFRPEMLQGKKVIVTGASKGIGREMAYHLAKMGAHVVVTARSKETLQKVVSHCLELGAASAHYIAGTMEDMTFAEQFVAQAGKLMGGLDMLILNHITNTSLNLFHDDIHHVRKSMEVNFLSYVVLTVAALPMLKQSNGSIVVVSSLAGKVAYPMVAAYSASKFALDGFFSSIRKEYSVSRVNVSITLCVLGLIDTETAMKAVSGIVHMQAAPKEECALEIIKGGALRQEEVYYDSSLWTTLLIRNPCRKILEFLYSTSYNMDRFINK

| SMILES | pIC50 |
| --- | --- |
| O=C1OC(c2ccc(O)cc2)CN1CC12CC3CC(CC(C3)C1)C2 (centres unmarked) [Example 17, 3-(1-adamantylmethyl)-5-(4-hydroxyphenyl)oxazolidin-2-one] | 6.00 to 7.30 |
| O=C1O[C@@H](Cc2ccccc2)CN1CC12CC3CC(CC(C3)C1)C2 [Example 6, (S)-5-benzyl-3-((1-adamantyl)methyl)oxazolidin-2-one] | 6.00 to 7.30 |
| O=C1OC(c2cccc(Cl)c2)CN1CC12CC3CC(CC(C3)C1)C2 (racemic) [Example 9, (±)-3((1-adamantyl)methyl)-5-(3-chlorophenyl)oxazolidin-2-one] | 6.00 to 7.30 |
| C[C@]1(c2ccccc2)CN(C2C3CC4CC(C3)CC2C4)C(=O)O1 (stereo partly drawn) [Example 16, (S)-3-(2-adamantyl)-5-methyl-5-phenyloxazolidin-2-one] | > 7.30 |
| CC1CCN(CC23CC4CC(CC(C4)C2)C3)C(=O)O1 (centres unmarked) [Example 26, 3-((1-adamantyl)methyl)-6-methyl-1,3-oxazinan-2-one] | 6.00 to 7.30 |
| O=C1O[C@@H](c2ccccc2Cl)CN1CC12CC3CC(CC(C3)C1)C2 [Example 7, (S)-3-((1-adamantyl)methyl)-5-(2-chlorophenyl)oxazolidin-2-one] | > 7.30 |
| CC(C)CC1CCN(CC23CC4CC(CC(C4)C2)C3)C(=O)O1 (centres unmarked) [Example 23, 3((1-adamantyl)methyl)-6-isobutyl-1,3-oxazinan-2-one] | 6.00 to 7.30 |
| O=C1O[C@@H](c2ccccc2)CN1CC12CC3CC(CC(C3)C1)C2 [Example 1, (S)-3-((1-adamantyl)methyl)-5-phenyloxazolidin-2-one] | > 7.30 |
| CC(C)C[C@H]1CN(C2C3CC4CC2CC(O)(C4)C3)C(=O)O1 (single isomer, unassigned) [Example 13B] | < 6.00 |
| O=C1O[C@@H](C2CCCCC2)CN1CC1C2CC3CC(C2)CC1C3 (stereo partly drawn) [Example 19, (S)-3-((2-adamantyl)methyl)-5-cyclohexyloxazolidin-2-one] | 6.00 to 7.30 |
| O=C1O[C@@H](C2CCCCC2)CN1C1C2CC3CC(C2)CC1C3 (stereo partly drawn) [Example 20, (S)-3-(2-adamantyl)-5-cyclohexyloxazolidin-2-one] | > 7.30 |
| O=C1O[C@H](c2ccccc2)CN1C1C2CC3CC(C2)CC1C3 (stereo partly drawn) [Example 15, (R)-3-(2-adamantyl)-5-phenyloxazolidin-2-one] | 6.00 to 7.30 |
| C[C@@H]1[C@H](c2ccccc2)OC(=O)N1CC12CC3CC(CC(C3)C1)C2 [Example 25, (4R,5S)-3-((1-adamantyl)methyl)-4-methyl-5-phenyloxazolidin-2-one] | > 7.30 |
| O=C1O[C@@H](C2CCCCC2)CN1CC12CC3CC(CC(C3)C1)C2 [Example 18, (S)-3-((1-adamantyl)methyl)-5-cyclohexyloxazolidin-2-one] | > 7.30 |
| CC[C@H]1CN(CC23CC4CC(CC(C4)C2)C3)C(=O)O1 [Example 10, (S)-3-((1-adamantyl)methyl)-5-ethyloxazolidin-2-one] | 6.00 to 7.30 |
| O=C1O[C@H](c2ccccc2)CN1CC12CC3CC(CC(C3)C1)C2 [Example 3, (R)-3((1-adamantyl)methyl)-5-phenyloxazolidin-2-one] | 6.00 to 7.30 |
| O=C1O[C@@H](c2ccccc2)CN1CC1C2CC3CC(C2)CC1C3 (stereo partly drawn) [Example 11, (S)-3((2-adamantyl)methyl)-5-phenyloxazolidin-2-one] | 6.00 to 7.30 |
| O=C1OC(C2CCC(O)CC2)CN1CC12CC3CC(CC(C3)C1)C2 (single isomer, unassigned) [Example 22B, 3-(1-adamantylmethyl)-5-(4-hydroxycyclohexyl)oxazolidin-2-one] | 6.00 to 7.30 |
| O=C1N[C@H](CO)CN1CC12CC3CC(CC(C3)C1)C2 [Example 24, (S)-1-((1-adamantyl)methyl)-4-(hydroxymethyl)imidazolidin-2-one] | 6.00 to 7.30 |
| CC(C)C[C@H]1CN(C2C3CC4CC2CC(O)(C4)C3)C(=O)O1 (single isomer, unassigned) [Example 13A] | 6.00 to 7.30 |
| CC(C)(C)[C@H]1CN(CC23CC4CC(CC(C4)C2)C3)C(=O)O1 [Example 8, (S)-3-((1-adamantyl)methyl)-5-(t-butyl)oxazolidin-2-one] | > 7.30 |
| CC(C)C[C@H]1CN(C2C3CC4CC(C3)CC2C4)C(=O)O1 (stereo partly drawn) [Example 5, (S)-3-(2-adamantyl)-5-isobutyloxazolidin-2-one] | > 7.30 |
| CC(C)C[C@H]1CN(CC23CC4CC(CC(C4)C2)C3)C(=O)O1 [Example 2, (S)-3-((1-adamantyl)methyl)-5-isobutyloxazolidin-2-one] | > 7.30 |
| O=C1O[C@H](C2CCCCC2)CN1C1C2CC3CC(C2)CC1C3 (stereo partly drawn) [Example 21, (R)-3-(2-adamantyl)-5-cyclohexyloxazolidin-2-one] | > 7.30 |
| O=C1O[C@@H](c2ccccc2)CN1C1C2CC3CC(C2)CC1C3 (stereo partly drawn) [Example 14, (S)-3-(2-adamantyl)-5-phenyloxazolidin-2-one] | 6.00 to 7.30 |
| CC(C)C[C@H]1CN(C23CC4CC(CC(C4)C2)C3)C(=O)O1 [Example 4, (S)-3-(1-adamantyl)-5-isobutyloxazolidin-2-one] | > 7.30 |
| CC(C)(C)[C@H]1CN(C2C3CC4CC(C3)CC2C4)C(=O)N1 (stereo partly drawn) [Example 27, (S)-1-(2-adamantyl)-4-tert-butylimidazolidin-2-one] | > 7.30 |

Biological target: microsomal 11β-HSD1 (Homo sapiens, UniProt P28845)
Experiment: Inhibition of microsomal 11β-HSD1, Scintillation Proximity Assay
Format: biochemical
Settings: microsomal enzyme, same manner as purified enzyme assay
Description: as §1
The inhibition of microsomal 11β-HSD1 was carried out in the same manner.

Chain of microsomal 11β-HSD1 (P28845 whole entry): as above

| SMILES | pIC50 |
| --- | --- |
| O=C1N[C@@H](c2ccccc2)CN1C12CC3CC(CC(C3)C1)C2 [Example 30, (S)-1-(1-adamantyl)-4-phenylimidazolidin-2-one] | > 7.30 |
| O=C1OC(c2ccc(Br)cc2)CN1C1C2CC3CC(C2)CC1C3 (racemic) [Example 29, (±)-5-(4-bromophenyl)-3-(2-adamantyl)oxazolidin-2-one] | > 7.30 |
| O=C1OC(c2ccc(-c3ccccc3)cc2)CN1C1C2CC3CC(C2)CC1C3 (racemic) [Example 38, (±)-5-(biphenyl-4-yl)-3-(2-adamantyl)oxazolidin-2-one] | > 7.30 |
| CC(C)CC1(CO)CN(CC23CC4CC(CC(C4)C2)C3)C(=O)N1 (racemic) [Example 36, (±)-1-(1-adamantylmethyl)-4-(hydroxymethyl)-4-isobutylimidazolidin-2-one] | 6.00 to 7.30 |
| CC(C)(C)C1CCN(C2C3CC4CC(C3)CC2C4)C(=O)N1 (racemic) [Example 31, (±)-4-tert-butyl-1-(2-adamantyl)tetrahydropyrimidin-2(1H)-one] | > 7.30 |
| CC(C)[C@H]1CN(C2C3CC4CC(C3)CC2C4)C(=O)N1 (stereo partly drawn) [Example 33, (S)-4-isopropyl-1-(2-adamantyl)imidazolidin-2-one] | > 7.30 |
| CC(C)CC1(CO)CN(C2C3CC4CC(C3)CC2C4)C(=O)N1 (racemic) [Example 35, (±)-1-(2-adamantyl)-4-(hydroxymethyl)-4-isobutylimidazolidin-2-one] | > 7.30 |
| O=C1OC(c2cccc(Br)c2)CN1C1C2CC3CC(C2)CC1C3 (racemic) [Example 34, (±)-5-(3-bromophenyl)-3-(2-adamantyl)oxazolidin-2-one] | > 7.30 |

Biological target: T2, 11β-HSD1 in whole cells (omental adipocytes) (Homo sapiens, UniProt P28845)
T2 construct: host or cells: omental adipocytes differentiated from preadipocytes
Experiment: Inhibition of 11β-HSD1 in whole cells (omental adipocytes), cortisone to cortisol conversion, SPA
Format: cell-based
Settings: 100 nM [3H] cortisone, 37 degrees C
Description: The inhibition of 11β-HSD1 by compounds of Formula I in whole cells was measured as follows. Omental adipocytes cultured in 96-well plates were purchased from Zen-Bio, Inc. and used at least two weeks after differentiation from precursor preadipocytes started in medium supplemented with adipogenic and lipogenic hormones (human insulin, dexamethasone, isobutylmethylxanthine and PPAR-gamma agonist). The cells were maintained in full adipocyte medium (DMEM/Ham's F-12 (1:1, v/v), HEPES pH 7.4, fetal bovine serum, penicillin, streptomycin and Amphotericin B, supplied by Zen-Bio, Inc.) at 37 degrees C., 5% CO2 and transferred into serum-free, phenol red free medium for overnight incubation. The assay was performed in a total volume of 200 microliters. The cells were pre-incubated with serum-free, phenol red free medium containing 0.1% (v/v) of DMSO and various concentrations of compounds of Formula I at least 1 h before [^3H] cortisone in ethanol (50 Ci/mmol, ARC, Inc.) was added to achieve final concentration of cortisone of 100 nM. The cells were incubated for 3-4 at 37 degrees Centigrade, 5% CO2. Negative controls were incubated without radioactive substrate and received the same amount of [^3H] cortisone at the end of the incubation. Formation of [^3H] cortisol was monitored by analyzing 25 microliters of each supernatant in scintillation proximity assay (SPA). (Solly, K.; Mundt, S. S.; Zokian, H. J.; Ding, G. J.; Hermanowski-Vosatka, A.; Strulovici, B.; Zheng, W. Assay Drug Dev. Technol. 2005, 3, 377-384),

T2 sequence (P28845 whole entry): as above

| SMILES | pIC50 |
| --- | --- |
| C[C@]1(c2ccccc2)CN(C2C3CC4CC(C3)CC2C4)C(=O)O1 (stereo partly drawn) [Example 16, (S)-3-(2-adamantyl)-5-methyl-5-phenyloxazolidin-2-one] | > 7.30 |
| O=C1O[C@@H](c2ccccc2Cl)CN1CC12CC3CC(CC(C3)C1)C2 [Example 7, (S)-3-((1-adamantyl)methyl)-5-(2-chlorophenyl)oxazolidin-2-one] | 6.00 to 7.30 |
| O=C1O[C@@H](c2ccccc2)CN1CC12CC3CC(CC(C3)C1)C2 [Example 1, (S)-3-((1-adamantyl)methyl)-5-phenyloxazolidin-2-one] | 6.00 to 7.30 |
| O=C1O[C@@H](C2CCCCC2)CN1C1C2CC3CC(C2)CC1C3 (stereo partly drawn) [Example 20, (S)-3-(2-adamantyl)-5-cyclohexyloxazolidin-2-one] | > 7.30 |
| O=C1N[C@@H](c2ccccc2)CN1C12CC3CC(CC(C3)C1)C2 [Example 30, (S)-1-(1-adamantyl)-4-phenylimidazolidin-2-one] | 6.00 to 7.30 |
| C[C@@H]1[C@H](c2ccccc2)OC(=O)N1CC12CC3CC(CC(C3)C1)C2 [Example 25, (4R,5S)-3-((1-adamantyl)methyl)-4-methyl-5-phenyloxazolidin-2-one] | > 7.30 |
| O=C1O[C@@H](C2CCCCC2)CN1CC12CC3CC(CC(C3)C1)C2 [Example 18, (S)-3-((1-adamantyl)methyl)-5-cyclohexyloxazolidin-2-one] | 6.00 to 7.30 |
| CC(C)(C)C1CCN(C2C3CC4CC(C3)CC2C4)C(=O)N1 (racemic) [Example 31, (±)-4-tert-butyl-1-(2-adamantyl)tetrahydropyrimidin-2(1H)-one] | > 7.30 |
| CC(C)[C@H]1CN(C2C3CC4CC(C3)CC2C4)C(=O)N1 (stereo partly drawn) [Example 33, (S)-4-isopropyl-1-(2-adamantyl)imidazolidin-2-one] | > 7.30 |
| CC(C)(C)[C@H]1CN(CC23CC4CC(CC(C4)C2)C3)C(=O)O1 [Example 8, (S)-3-((1-adamantyl)methyl)-5-(t-butyl)oxazolidin-2-one] | > 7.30 |
| CC(C)C[C@H]1CN(C2C3CC4CC(C3)CC2C4)C(=O)O1 (stereo partly drawn) [Example 5, (S)-3-(2-adamantyl)-5-isobutyloxazolidin-2-one] | > 7.30 |
| CC(C)C[C@H]1CN(CC23CC4CC(CC(C4)C2)C3)C(=O)O1 [Example 2, (S)-3-((1-adamantyl)methyl)-5-isobutyloxazolidin-2-one] | 6.00 to 7.30 |
| O=C1O[C@H](C2CCCCC2)CN1C1C2CC3CC(C2)CC1C3 (stereo partly drawn) [Example 21, (R)-3-(2-adamantyl)-5-cyclohexyloxazolidin-2-one] | > 7.30 |
| CC(C)C[C@H]1CN(C23CC4CC(CC(C4)C2)C3)C(=O)O1 [Example 4, (S)-3-(1-adamantyl)-5-isobutyloxazolidin-2-one] | > 7.30 |
| CC(C)(C)[C@H]1CN(C2C3CC4CC(C3)CC2C4)C(=O)N1 (stereo partly drawn) [Example 27, (S)-1-(2-adamantyl)-4-tert-butylimidazolidin-2-one] | > 7.30 |
